Experimental data from US20100075960A1 (priority 2006, published 2010).
Counter-ions that a name gives are not always drawn.

Test system: HCT116
Assay: Inhibition of cell proliferation, HCT116
Format: cell-based
Conditions: Homo sapiens, HCT-116; 72 h treatment; methylene blue or CellTiter-Glo
Procedure: II. Inhibition of Cell Proliferation by PLK1 Inhibitors.
Exponentially growing cell lines of different tumor origins, cultured in appropriate media containing 10% fetal bovine serum at 37° C. in a 5% CO2 incubator were plated in 96 or 384-well plates. Twenty four hours post-plating, cells were treated with different concentrations of test compounds ranging from 20 μM to 0.04 nM. Several wells were left untreated as a control. Seventy two hours post-treatment, cell numbers were determined using different techniques; 100 μl per well of methylene blue (Sigma M9140) (0.5% in 50:50 Ethanol:water), or 10-100 μl per well of CellTiter-Glo (Promega #G7573), depending on well size. For methylene blue staining, stain was incubated at room temperature for 30 minutes before plates were rinsed and dye solubilized in 1% N-lauroyl sarcosine, sodium salt, (Sigma L5125, in PBS). Plates were read on a microplate reader, measuring the OD at 620 nm. For CellTiter-Glo, plates were incubated at room temperature for 15 minutes and the chemiluminescent signal was read on the Victor V or Envison 2100 reader.
Percent inhibition of cell growth was expressed as percent proliferation relative to 100% proliferation (control). Concentration of test compound that inhibited 50% of cell growth (IC50) was determined by 4 parameter fit of data using XLfit, (value of no cell control was substracted from all samples for background). The data are shown in Table 1 and Table 2 below and represent a compilation of several different experiments each performed using the general parameters outlined above, although minor variations may have been employed in some instances, in Table 1 and Table 2, +=IC50>1 μM; ++=IC50 0.5-1 μM: +++=IC50<0.5 μM.

| Compound | IC50 [nM] |
| --- | --- |
| C[C@@H](Oc1cc(-n2cnc3cc(-c4cnn(C)c4)ccc32)sc1C(N)=O)c1ccc(F)c(OC2CCN(C)CC2)c1Cl [Example 34, 3-[((1R)-1-{2-Chloro-4-fluoro-3-[(1-methyl-4-piperidinyl)oxy]phenyl}ethyl)oxy]-5-[5-(1-methyl-1H-pyrazol-4-yl)-1H-benzimidazol-1-yl]-2-thiophenecarboxamide trifluoroacetate] | < 500 |
| C[C@@H](Oc1cc(-n2cnc3cc(-c4cnn(C)c4)ccc32)sc1C(N)=O)c1ccc(F)c(OC2CCN(CCS(C)(=O)=O)CC2)c1Cl [Example 36, 3-({(1R)-1-[2-Chloro-4-fluoro-3-({1-[2-(methylsulfonyl)ethyl]-4-piperidinyl}oxy)phenyl]ethyl}oxy)-5-[5-(1-methyl-1H-pyrazol-4-yl)-1H-benzimidazol-1-yl]-2-thiophenecarboxamide] | < 500 |
| C[C@@H](Oc1cc(-n2cnc3cc(-c4cc[n+]([O-])cc4)ccc32)sc1C(N)=O)c1cccc(OC2CCNCC2)c1Cl [Example 37, 3-({(1R)-1-1-[2-Chloro-3-(4-piperidinyloxy)phenyl]ethyl}oxy)-5-[5-(1-oxido-4-pyridinyl)-1H-benzimidazol-1-yl]-2-thiophenecarboxamide] | > 1000 |
| C[C@@H](Oc1cc(-n2cnc3cc(-c4cnn(C)c4)ccc32)sc1C(N)=O)c1c(F)ccc(OC2CCN(C)CC2)c1Cl [Example 38, 3-[((1R)-1-{2-Chloro-6-fluoro-3-[(1-methyl-4-piperidinyl)oxy]phenyl}ethyl)oxy]-5-[5-(1-methyl-1H-pyrazol-4-yl)-1H-benzimidazol-1-yl]-2-thiophenecarboxamide] | < 500 |
| COc1cc2ncn(-c3cc(O[C@H](C)c4cccc(OCC5CCNCC5)c4Cl)c(C(N)=O)s3)c2cc1OC [Example 40, 5-[5,6-Bis(methyloxy)-1H-benzimidazol-1-yl]-3-[((1R)-1-{2-chloro-3-[(4-piperidinylmethyl)oxy]phenyl}ethyl)oxy]-2-thiophenecarboxamide] | < 500 |
| COc1cc2ncn(-c3cc(O[C@H](C)c4cccc(OCC5CCN(C)CC5)c4Cl)c(C(N)=O)s3)c2cc1OC [Example 41, 5-[5,6-Bis(methyloxy)-1H-benzimidazol-1-yl]-3-{[(1R)-1-(2-chloro-3-{[(1-methyl-4-piperidinyl)methyl]oxy}phenyl)ethyl]oxy}-2-thiophenecarboxamide] | < 500 |
| C[C@@H](Oc1cc(-n2cnc3cc(-c4cnn(C)c4)ccc32)sc1C(N)=O)c1cccc(OCC2CCNCC2)c1Cl [Example 44, 3-[((1R)-1-{2-Chloro-3-[(4-piperidinylmethyl)oxy]phenyl}ethyl)oxy]-5-[5-(1-methyl-1H-pyrazol-4-yl)-1H-benzimidazol-1-yl]-2-thiophenecarboxamide trifluoroacetate] | < 500 |
| C[C@@H](Oc1cc(-n2cnc3cc(-c4cnn(C)c4)ccc32)sc1C(N)=O)c1cccc(OC2CCN(C(=O)OC(C)(C)C)CC2)c1Cl [Example 46, 1,1-Dimethylethyl 4-({3-[(1R)-1-({2-(aminocarbonyl)-5-[5-(1-methyl-1H-pyrazol-4-yl)-1H-benzimidazol-1-yl]-3-thienyl}oxy)ethyl]-2-chlorophenyl}oxy)-1-piperidinecarboxylate] | < 500 |
| Cc1cc(-c2ccc3c(c2)ncn3-c2cc(O[C@H](C)c3cccc(OC4CCN(C)CC4)c3Cl)c(C(N)=O)s2)ccn1 [Example 50, 3-[((1R)-1-{2-Chloro-3-[(1-methyl-4-piperidinyl)oxy]phenyl}ethyl)oxy]-5-[5-(2-methyl-4-pyridinyl)-1H-benzimidazol-1-yl]-2-thiophenecarboxamide] | < 500 |
| C[C@@H](Oc1cc(-n2cnc3cc(Br)ccc32)sc1C(N)=O)c1cccc(OC2CCN(C)CC2)c1Cl [Example 51, 5-(5-Bromo-1H-benzimidazol-1-yl)-3-[((1R)-1-{2-chloro-3-[(1-methyl-4-piperidinyl)oxy]phenyl}ethyl)oxy]-2-thiophenecarboxamide] | < 500 |
| C[C@@H](Oc1cc(-n2cnc3ccc(Cl)cc32)sc1C(N)=O)c1cccc(OC2CCNCC2)c1Cl [Example 52, 5-(6-Chloro-1H-benzimidazol-1-yl)-3-({(1R)-1-[2-chloro-3-(4-piperidinyloxy)phenyl}ethyl)oxy)-2-thiophenecarboxamide] | < 500 |
| C[C@@H](Oc1cc(-n2cnc3ccc(CS(C)(=O)=O)cc32)sc1C(N)=O)c1cccc(OC2CCN(C)CC2)c1Cl [Example 55, 3-[((1R)-1-(2-chloro-3-[(1-methyl-4-piperidinyl)oxy]phenyl}ethyl)oxy]-5-(6-[(methylsulfonyl)methyl]1H-benzimidazol-1-yl}-2-thiophenecarboxamide] | > 1000 |
| C[C@@H](Oc1cc(-n2cnc3ccc(CS(C)(=O)=O)cc32)sc1C(N)=O)c1cccc(OCC2CCNCC2)c1Cl [Example 56, 3-[((1R)-1-{2-chloro-3-[(4-piperidinylmethyl)oxy]phenyl}ethyl)oxy]-5-{6-[(methylsulfonyl)-methyl]-1H-benzimidazol-1-yl}-2-thiophenecarboxamide] | > 1000 |
| C[C@@H](Oc1cc(-n2cnc3cc(OC(F)(F)F)ccc32)sc1C(N)=O)c1cccc(OC2CCNCC2)c1Cl [Example 61] | < 500 |

Continued, values first:

| IC50 [nM] | Compound |
| --- | --- |
| < 500 | C[C@@H](Oc1cc(-n2cnc3cc(-c4cnn(C)c4)ccc32)sc1C(N)=O)c1ccc(F)c(OC2CCN(CCF)CC2)c1Cl [Example 35, 3-{[(1R)-1-(2-Chloro-4-fluoro-3-{[1-(2-fluoroethyl)-4-piperidinyl]oxy}phenyl)ethyl]oxy}-5-[5-(1-methyl-1H-pyrazol-4-yl)-1H-benzimidazol-1-y]-2-thiophenecarboxamide] |
| 500 to 1000 | COc1cc2ncn(-c3cc(O[C@H](C)c4cccc(OCC5CCN(C(=O)OC(C)(C)C)CC5)c4Cl)c(C(N)=O)s3)c2cc1OC [Example 39, 1,1-Dimethylethyl 4-[({3-[(1R)-1-({2-(aminocarbonyl)-5-[5,6-bis(methyloxy)-1H-benzimidazol-1-yl]-3-thienyl}oxy)ethyl]-2-chlorophenyl}oxy)methyl]-1-piperidinecarboxylate] |
| < 500 | COc1cc2ncn(-c3cc(O[C@H](C)c4cccc(OCCN5CCN(C)CC5)c4Cl)c(C(N)=O)s3)c2cc1OC [Example 42, 5-[5,6-Bis(methyloxy)-1H-benzimidazol-1-yl]-3-{[(1R)-1-(2-chloro-3-{[2-(4-methyl-1-piperazinyl)ethyl]oxy}phenyl)ethyl]oxy}-2-thiophenecarboxamide] |
| > 1000 | C[C@@H](Oc1cc(-n2cnc3cc(-c4cnn(C)c4)ccc32)sc1C(N)=O)c1cccc(OCC2CCN(C(=O)OC(C)(C)C)CC2)c1Cl [Example 43, 1,1-Dimethylethyl 4-[({3-[(1R)-1-({2-(aminocarbonyl)-5-[5-(1-methyl-1H-pyrazol-4-yl)-1H-benzimidazol-1-yl]-3-thienyl}oxy)ethyl]-2-chlorophenyl}oxy)methyl]-1-piperidinecarboxylate] |
| < 500 | C[C@@H](Oc1cc(-n2cnc3ccc(Cl)cc32)sc1C(N)=O)c1cccc(OC2CCN(C)CC2)c1Cl [Example 53, 5-(6-Chloro-1H-benzimidazol-1-yl)-3-[((1R)-1-(2-chloro-3-([1-methyl-4-piperidinyl)oxy]phenyl)}oxy]-2-thiophenecarboxamide] |
| > 1000 | C[C@@H](Oc1cc(-n2cnc3ccc(CS(C)(=O)=O)cc32)sc1C(N)=O)c1cccc(OC2CCNCC2)c1Cl [Example 54] |
| > 1000 | C[C@@H](Oc1cc(-n2cnc3ccc(CS(C)(=O)=O)cc32)sc1C(N)=O)c1cccc(OCC2CCCN2C)c1Cl (stereo partly drawn) [Example 57] |
